The text below walks through data of patent publication EP4800008A1, “PYRAZOLE DERIVATIVE, OR ACCEPTABLE SALT THEREOF OR N-OXIDE THEREOF, AGRICULTURAL AND HORTICULTURAL CHEMICAL, AND INDUSTRIAL MATERIAL PROTECTANT” (Kureha Corporation, priority 2023, dated 2025).

The test system of one test is Zymoseptoria tritici. Briefly: Wheat leaf blight control efficacy test. It counts as in vivo. Conditions: 12.5 ppm, as Test Example 4.
The subject of a further test is Botrytis cinerea. Briefly: Cucumber gray mold control efficacy test. Conditions: as Test Example 2. In kind it is in vivo.

Each structure is given as a SMILES string.

For `CON(C(=O)c1cn(C)nc1C(F)F)C(C)Cc1ccc(C#CCOCc2ccccc2)cc1Cl` (stereo not drawn) [Compound I-18], the control efficacy in the test with Zymoseptoria tritici is reported as 100%.
For `CON(C(=O)c1cn(C)nc1C(F)F)C(C)Cc1c(Cl)cc(Cl)cc1Cl` (stereo not drawn) [Control compound C], the control efficacy with Botrytis cinerea (12.5 ppm) came to 65%; in the test with Botrytis cinerea (100 ppm), 97%.
